# “Also recorded” adds a separate entry of the source.
# Tests used:
# CYP2CMp = conditions: in vivo; cited from earlier work
# CYP2D6 enzyme = conditions: background or known; cited from earlier work
# [1] = administered with ketoconazole or erythromycin; cited from earlier work
# liver = conditions: in vivo; cited from earlier work
# cytochrome P450 = conditions: in vivo; cited from earlier work
# labor at term [2] = test: Clinical trials of sparteine for inducing labor at term; assay type: in vivo, human; conditions: of all Caucasians; expected from CYP2D6 deficiency
# Method: The drug was not recommended for clinical use because these side effects were unpredictable and occurred at doses of […], which were well tolerated by other patients.
# labor at term [3] = conditions: cited from earlier work
# CYP2A6 enzyme = conditions: cited from earlier work
# CYP2D6 = conditions: cited from earlier work
# CYP1A2 enzyme = conditions: known; cited from earlier work
# CYP3A enzymes = conditions: cited from earlier work
compound,measurement,setting,value
CCC1(c2ccccc2)NC(=O)N(C)C1=O (stereo not drawn) [Mephenytoin],enzyme which metabolizes the drug,CYP2CMp,metabolized by CYP2CMp
COc1ccc2c(c1)[C@]13CCCC[C@@H]1[C@H](C2)N(C)CC3 (stereo in doubt) [dextromethorphan],enzyme which metabolizes the drug,CYP2D6 enzyme,metabolized by the CYP2D6 enzyme
CC(C)(C)c1ccc(C(O)CCCN2CCC(C(O)(c3ccccc3)c3ccccc3)CC2)cc1 (stereo not drawn) [terfenadine],cardiac adverse reaction,[1],Torsades de Points
CC(=O)Nc1ccc(O)cc1 [acetaminophen],origin of liver toxicity,liver,due to a toxic metabolite that is generated by cytochrome P450
CC[C@@]1(c2ccccc2)NC(=O)N(C)C1=O [S-mephenytoin],poor metabolizers among Caucasians,CYP2CMp,less than 5%
same,poor metabolizers among Japanese subjects,CYP2CMp,about 20%
CCC1(c2ccccc2)C(=O)NC(=O)NC1=O [phenobarbital],effect on cytochrome P450 activity,cytochrome P450,increase cytochrome P450 activity
same,effect on metabolism of contraceptive steroids,cytochrome P450,increased rate of metabolism of contraceptive steroids
CN/C(=N/CCSCc1nc[nH]c1C)NC#N [cimetidine],effect on cytochrome P450 activity,cytochrome P450,depresses P450 activity
C1CCN2C[C@@H]3C[C@@H](CN4CCCC[C@@H]34)[C@H]2C1 [sparteine],expected poor metabolizers,labor at term [2],5-10%
same,potency for inducing labor at term,"labor at term [3]; clinical trials, United States, late 1950's",as potent as oxytocin
same,patients with dramatically increased duration and intensity of action,labor at term [3]; of all patients tested,about 7%
same,patients with exaggerated response,labor at term [3]; patients administered during clinical trials,7%
same,side effects (exaggerated response),labor at term [3]; some patients,prolonged uterine contraction and abnormally rapid labor; also recorded: caused death of the fetus
O=c1ccc2ccccc2o1 [coumarin],enzyme which metabolizes the drug,CYP2A6 enzyme,metabolized by the CYP2A6 enzyme
N=C(N)N1CCc2ccccc2C1 [debrisoquine],poor metabolizers among Caucasians,CYP2D6; Caucasians,5-10%
same,enzyme which metabolizes the drug,CYP2D6; in vivo,metabolized by CYP2D6
Cn1c(=O)c2c(ncn2C)n(C)c1=O [caffeine],enzyme which metabolizes the drug,CYP1A2 enzyme,metabolized by the CYP1A2 enzyme
CO[C@H]1/C=C/O[C@@]2(C)Oc3c(C)c(O)c4c(O)c(c(/C=N/N5CCN(C)CC5)c(O)c4c3C2=O)NC(=O)/C(C)=C\C=C\[C@H](C)[C@H](O)[C@@H](C)[C@@H](O)[C@@H](C)[C@H](OC(C)=O)[C@@H]1C [rifampin],effect on cytochrome P450 activity,cytochrome P450,increase cytochrome P450 activity
same,effect on metabolism of contraceptive steroids,cytochrome P450,increased rate of metabolism of contraceptive steroids
CC(=O)N1CCN(c2ccc(OCC3COC(Cn4ccnc4)(c4ccc(Cl)cc4Cl)O3)cc2)CC1 (stereo not drawn) [ketoconazole],inhibition of CYP3A enzymes,CYP3A enzymes,potent inhibitors of the CYP3A enzymes

# Source: patent US5478723A, “Method and apparatus for determining the role of cytochrome P450 and related enzymes in the metabolism of drugs and other chemicals” (priority 1993, dated 1995)
